The text below walks through data of US20090137688A1, “PHARMACEUTICAL PRODUCT” (priority 2005, published 2009).

The series in a line: Accumulative release from porous silicon samples immersed in PBS buffer, measured by UV spectroscopic technique. It is filed as physicochemical. As to conditions: PBS buffer at 37 C; for rate of release when the porous silicon wafer has been coated with cocoa butter, relative to the uncoated state: Method A, cocoa butter layer approx. 1 mm, FIG. 1. On the procedure: A number of experiments were performed to show the effect of an excipient upon the release of a beneficial substance from the pores of porous silicon. Three substances were tested: chlorambucil, amitriptyline hydrochloride, neutral red. The excipient employed was cocoa butter. Three methods of combining the porous silicon, excipient, and beneficial substance, were carried out.
Method A comprises the steps of: (a) dissolving the beneficial substance in ethanol; (b) introducing the ethanolic solution of the beneficial substance to the surface of the porous silicon wafer and allowing it to pass into the pores; (c) applying heat to the porous silicon wafer by means of a hot plate to drive off the ethanol, (d) removing the excess beneficial substance, that has not entered the pores, by washing with ethanol; (e) dropping melted cocoa butter oil onto the porous side of the wafer, which has been loaded with a beneficial substance; and (f) allowing the wafer to cool at an ambient temperature of 20 C for approximately one hour, the cocoa butter forming a layer, approximately 1 mm in depth, that coats the surface of the porous silicon.
Method B comprises the steps: (a) dissolving the beneficial substance and excipient in ethanol; (b) introducing the ethanolic solution of the beneficial substance and excipient to the surface of the porous silicon wafer and allowing it to pass into the pores; (c) applying heat to the porous silicon wafer by means of a hot plate thereby driving off the ethanol, and (d) removing the excess beneficial substance and excipient, that have not entered the pores, by washing with ethanol. The porosified wafer, utilized for methods A and B, comprised mesoporous silicon having a porosity of 74%.
Method C comprises the steps: (a) fabricating particles of porous silicon by milling one or more porous silicon membranes; (b) combining the silicon particles with an ethanolic solution of the beneficial substance in a flask; (c) removing the ethanol by rotary evaporation; (d) mixing the beneficial substance loaded particles with excipient, (e) introducing the mixture to a cylindrical die, and (f) applying a uniaxial pressure of 0.5 ton to form a pellet. The porous silicon membrane, utilized for method C, comprises mesoporous silicon having a porosity of: 77%.
Samples of porous silicon that have been combined with beneficial substance and excipient by methods A, B, and C were then immersed in PBS buffer at 37 C, and the accumulative release was measured by means of a UV spectroscopic technique.
The uncoated samples, the results for which are shown in FIG. 1, were prepared, with the steps (a) to (d) of method A.

[1] abbreviates: mesoporous silicon wafer, porosity 74%.

Structures are written as SMILES. Where a name gives a salt, the structure may show the parent alone.

For `CN(C)CCC=C1c2ccccc2CCc2ccccc21` [amitriptyline hydrochloride], the “rate of release when the porous silicon wafer has been coated with cocoa butter, relative to the uncoated state” value under setting [1] is “slower”.
As for `O=C(O)CCCc1ccc(N(CCCl)CCCl)cc1` [chlorambucil], under setting [1], the “rate of release when the porous silicon wafer has been coated with cocoa butter, relative to the uncoated state” value is reported as “increases”. The “rate of release for porous silicon loaded with beneficial substance alone, compared with solution loading with cocoa butter” value (Method B, mesoporous silicon wafer, porosity 74%, FIG. 2) is given as “faster than when the excipient is present”. The “rate of release from pellet, excipient free sample versus pellet with equal mass of cocoa butter and porous silicon, during the first seven hours” value (Method C, compressed pellet, mesoporous silicon porosity 77%, FIG. 3) is listed as “higher, from the excipient free sample”. In addition, for the setting “Method C, pellet with equal mass of cocoa butter and porous silicon, FIG. 3”, the “rate of release from the excipient containing pellet beyond seven hours” value is recorded as “accelerates until it is higher than that of the excipient free sample”.
